Measurements from PubChem BioAssay AID1963825 (Molecular Pharmacology Branch, DTP, NCI, 2024).

Experiment: Anticancer human tumor 997537-175-T-J1-PDC patient-derived colon adenocarcinoma cell line growth inhibition [POLQ]
Conditions: 997537-175-T-J1-PDC complex spheroid viability, combination with POLQ inhibitors; for IC50: curve of first compound; for viability, T/C: stronger effect = lower value
Procedure, shortened: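 Growth inhibition in 3D: complex spheroids (tumor PDC, HUVEC, MSC) treated with POLQ inhibitor combinations; where Cmax unknown, highest tested concentration 10 microM, except SN-38 at 1 microM.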

[1] = second compound 0.0316 µM, first compound 0.0316 µM
[2] = second compound 0.0316 µM, first compound 0.1 µM
[3] = second compound 0.0316 µM, first compound 0.316 µM
[4] = second compound 0.0316 µM, first compound 1 µM
[5] = second compound 0.1 µM, first compound 0.0316 µM
[6] = second compound 0.1 µM, first compound 0.1 µM
[7] = second compound 0.1 µM, first compound 0.316 µM
[8] = second compound 0.1 µM, first compound 1 µM
[9] = second compound 0.316 µM, first compound 0.0316 µM
[10] = second compound 0.316 µM, first compound 0.1 µM
[11] = second compound 0.316 µM, first compound 0.316 µM
[12] = second compound 0.316 µM, first compound 1 µM
[13] = second compound 1 µM, first compound 0.0316 µM
[14] = second compound 1 µM, first compound 0.1 µM
[15] = second compound 1 µM, first compound 0.316 µM
[16] = second compound 1 µM, first compound 1 µM
[17] = second compound 3.16 µM, first compound 0.0316 µM
[18] = second compound 3.16 µM, first compound 0.1 µM
[19] = second compound 3.16 µM, first compound 0.316 µM
[20] = second compound 3.16 µM, first compound 1 µM
[21] = second compound 10 µM, first compound 0.0316 µM
[22] = second compound 10 µM, first compound 0.1 µM
[23] = second compound 10 µM, first compound 0.316 µM
[24] = second compound 10 µM, first compound 1 µM
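Further: luminescence signal used as a surrogate for viable cells; spheroids exposed to drugs for seven days before readout.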

CCc1c2c(nc3ccc(O)cc13)-c1cc3c(c(=O)n1C2)COC(=O)[C@]3(O)CC + Cc1cccc(N(C)C(=O)C2C(O)CCN2c2nc(C)cc(C(F)(F)F)c2C#N)c1
IC50 (second compound 0.0316 µM): 19.7 nM | IC50 (second compound 0.1 µM): 18.1 nM | IC50 (second compound 0.316 µM): 21.7 nM | IC50 (second compound 1 µM): 15.3 nM | IC50 (second compound 3.16 µM): 17.3 nM | IC50 (second compound 10 µM): 18.9 nM | viability, T/C (second compound 0.0316 µM, first compound 0.00316 µM): 81.5% | viability, T/C (second compound 0.0316 µM, first compound 0.01 µM): 68.8% | viability, T/C [1]: 36.7% | viability, T/C [2]: 13.7% | viability, T/C [3]: 5.85% | viability, T/C [4]: 4.36% | viability, T/C (second compound 0.1 µM, first compound 0.00316 µM): 86.2% | viability, T/C (second compound 0.1 µM, first compound 0.01 µM): 70.1% | viability, T/C [5]: 30.7% | viability, T/C [6]: 11.7% | viability, T/C [7]: 6.03% | viability, T/C [8]: 4.13% | viability, T/C (second compound 0.316 µM, first compound 0.00316 µM): 82.7% | viability, T/C (second compound 0.316 µM, first compound 0.01 µM): 77.2% | viability, T/C [9]: 35.8% | viability, T/C [10]: 15.8% | viability, T/C [11]: 5.26% | viability, T/C [12]: 5.26% | viability, T/C (second compound 1 µM, first compound 0.00316 µM): 79.8% | viability, T/C (second compound 1 µM, first compound 0.01 µM): 59.5% | viability, T/C [13]: 33.5% | viability, T/C [14]: 14.4% | viability, T/C [15]: 5.49% | viability, T/C [16]: 5.83% | viability, T/C (second compound 3.16 µM, first compound 0.00316 µM): 91.5% | viability, T/C (second compound 3.16 µM, first compound 0.01 µM): 65.3% | viability, T/C [17]: 33% | viability, T/C [18]: 14.8% | viability, T/C [19]: 6.21% | viability, T/C [20]: 5.14% | viability, T/C (second compound 10 µM, first compound 0.00316 µM): 81.4% | viability, T/C (second compound 10 µM, first compound 0.01 µM): 63% | viability, T/C [21]: 39.5% | viability, T/C [22]: 18.7% | viability, T/C [23]: 5.71% | viability, T/C [24]: 7.45%

CCc1cc2c(N3CCc4c(cc(Cn5ccnc5)cc4-c4cn(C)nc4C(F)(F)F)C3=O)ccnc2c(OC)n1 + Nc1ccc(C#CCN(C(=O)Cc2ncc(C(F)(F)F)cc2C(F)(F)F)c2ccc(F)cc2)nn1
IC50 (second compound 0.0316 µM): > 10000 nM | IC50 (second compound 0.1 µM): > 10000 nM | IC50 (second compound 0.316 µM): > 10000 nM | IC50 (second compound 1 µM): > 10000 nM | IC50 (second compound 3.16 µM): > 10000 nM | IC50 (second compound 10 µM): > 10000 nM | viability, T/C [1]: 89.5% | viability, T/C [2]: 110% | viability, T/C [3]: 94.7% | viability, T/C [4]: 97.2% | viability, T/C (second compound 0.0316 µM, first compound 3.16 µM): 85.9% | viability, T/C (second compound 0.0316 µM, first compound 10 µM): 57.8% | viability, T/C [5]: 94.6% | viability, T/C [6]: 98.2% | viability, T/C [7]: 87% | viability, T/C [8]: 114% | viability, T/C (second compound 0.1 µM, first compound 3.16 µM): 82.1% | viability, T/C (second compound 0.1 µM, first compound 10 µM): 63.2% | viability, T/C [9]: 92.4% | viability, T/C [10]: 93.5% | viability, T/C [11]: 83.5% | viability, T/C [12]: 94.6% | viability, T/C (second compound 0.316 µM, first compound 3.16 µM): 68.4% | viability, T/C (second compound 0.316 µM, first compound 10 µM): 61.8% | viability, T/C [13]: 103% | viability, T/C [14]: 104% | viability, T/C [15]: 97.3% | viability, T/C [16]: 77% | viability, T/C (second compound 1 µM, first compound 3.16 µM): 77.4% | viability, T/C (second compound 1 µM, first compound 10 µM): 86.9% | viability, T/C [17]: 97% | viability, T/C [18]: 76.5% | viability, T/C [19]: 90.5% | viability, T/C [20]: 91.2% | viability, T/C (second compound 3.16 µM, first compound 3.16 µM): 71.6% | viability, T/C (second compound 3.16 µM, first compound 10 µM): 64.1% | viability, T/C [21]: 97.4% | viability, T/C [22]: 96.2% | viability, T/C [23]: 101% | viability, T/C [24]: 91% | viability, T/C (second compound 10 µM, first compound 3.16 µM): 79.5% | viability, T/C (second compound 10 µM, first compound 10 µM): 75.5%
